Values of other authors, collected in patent US10772813B2, “Compositions and methods of administering a colchicine based topical composition for the prevention of radiation fibrosis” (Colradel, LLC, priority 2016, dated 2020).
Entries after “also recorded” stand apart in the source; their conditions may differ.

Assays:
fibroblasts = conditions: low doses
[1] = tested on: radiation-induced fibrosis; conditions: single agent, oral
[2] = topical vs high oral doses

For COc1cc2c(c(OC)c1OC)-c1ccc(OC)c(=O)cc1[C@@H](NC(C)=O)CC2 [colchicine], which “inhibition of fibroblast migration” value (fibroblasts) is on record?
Its value is 93%.

What about the side effects (fibroblasts) of the same molecule?
The side effects was “without any side effects”.

What about the “concentration in the skin / dermis” value (0.2% colchicine ointment compared with 0.5%) of the same molecule?
Its value is “same concentration in the dermis 0.5%; also recorded: the same concentration in the skin as 0.5%”.

And the side effects (0.2% formulation (0.2 gram in 100 ml), transdermal ointment)?
Its side effects is “no side effects”.

What about the transdermal absorption (ointment, treatment of gout) of the same molecule?
The transdermal absorption was “well-absorbed transdermally”.

With CC(=O)CCCCn1c(=O)c2c(ncn2C)n(C)c1=O [pentoxifylline, 3,7-dimethyl-1-5-(5-oxohexyl)-xanthine] as the molecule, how does the “improvement in late radiation-induced fibrosis” value [1] read?
The value was “significant improvement”.

For tocopherol [vitamin E], which “concentration achievable by topical administration versus high doses orally” value [2] is on record?
The value was 11 times.
